Active and inactive are the calls of the source. No cut-off for these calls is given here.

The record followed here is ChEMBL document CHEMBL2429812, “Exploring multitarget interactions to reduce opiate withdrawal syndrome and psychiatric comorbidity” (ACS Med Chem Lett, 2013).

Test [1] has as its target T1, 5-hydroxytryptamine receptor 1A (Homo sapiens) (UniProt P08908).
T1 sequence (whole entry): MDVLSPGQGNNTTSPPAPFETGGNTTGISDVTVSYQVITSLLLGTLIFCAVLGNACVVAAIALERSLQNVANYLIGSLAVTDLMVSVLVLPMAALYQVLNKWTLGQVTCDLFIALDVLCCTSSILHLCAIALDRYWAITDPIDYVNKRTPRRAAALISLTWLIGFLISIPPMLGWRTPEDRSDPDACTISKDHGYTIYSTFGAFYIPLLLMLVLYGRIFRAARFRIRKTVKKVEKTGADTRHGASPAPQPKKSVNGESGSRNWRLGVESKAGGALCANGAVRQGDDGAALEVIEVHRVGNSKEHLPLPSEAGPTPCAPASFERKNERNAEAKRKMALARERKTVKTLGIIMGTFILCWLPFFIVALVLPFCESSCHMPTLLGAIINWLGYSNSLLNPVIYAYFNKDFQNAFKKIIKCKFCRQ
The experiment in a line: Agonist activity at human 5HT1A receptor assessed as intrinsic activity.

For test [2], the system named is Mus musculus. The experiment in a line: Reduction in morphine dependence expression in mouse assessed as decrease in expression of naloxone-precipitated withdrawal syndrome measuring jumping at 5 mg/kg, ip. It is filed as functional. Set-up: scale not given: the % may be the effect or the level left. The settings on record: route intraperitoneal.
Test [3] concerns Mus musculus. The experiment in a line: Antidepressant-like activity in mouse assessed as reduction in immobility time at 0.05 mg/kg, ip by forced swimming test. The format is functional, organism-based. Set-up: dose 0.05 mg/kg.
Test [4] concerns the target T2, Alpha-2A adrenergic receptor (Homo sapiens) (UniProt P08913).
T2 sequence (whole entry): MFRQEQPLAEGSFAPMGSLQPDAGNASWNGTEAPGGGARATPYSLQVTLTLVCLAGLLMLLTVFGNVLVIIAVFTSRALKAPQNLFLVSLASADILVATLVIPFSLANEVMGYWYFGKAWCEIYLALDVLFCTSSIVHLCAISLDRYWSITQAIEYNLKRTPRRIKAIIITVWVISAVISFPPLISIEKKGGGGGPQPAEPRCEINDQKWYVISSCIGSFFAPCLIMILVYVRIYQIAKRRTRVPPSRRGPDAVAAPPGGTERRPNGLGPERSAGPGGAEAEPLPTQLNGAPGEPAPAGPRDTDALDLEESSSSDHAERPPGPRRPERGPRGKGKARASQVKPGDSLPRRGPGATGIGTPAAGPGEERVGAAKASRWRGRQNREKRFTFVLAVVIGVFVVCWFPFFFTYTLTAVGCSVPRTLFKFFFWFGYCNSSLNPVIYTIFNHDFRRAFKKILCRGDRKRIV
The experiment in a line: Antagonist activity at human alpha2A AR.

Test [5] relates to Mus musculus. The experiment in a line: Reduction in morphine dependence expression in mouse assessed as decrease in expression of naloxone-precipitated withdrawal syndrome measuring somatic signs at 5 mg/kg, ip. It is filed as functional. Also noted: scale not given: the % may be the effect or the level left. The settings on record: route intraperitoneal.
Test [6] can be described thus: Binding affinity to I2 imidazoline binding site in rat brain membrane. It is filed as cell membranes.
In test [7] the target is T3, Alpha-2B adrenergic receptor (Homo sapiens, UniProt P18089).
T3 sequence (P18089 whole entry): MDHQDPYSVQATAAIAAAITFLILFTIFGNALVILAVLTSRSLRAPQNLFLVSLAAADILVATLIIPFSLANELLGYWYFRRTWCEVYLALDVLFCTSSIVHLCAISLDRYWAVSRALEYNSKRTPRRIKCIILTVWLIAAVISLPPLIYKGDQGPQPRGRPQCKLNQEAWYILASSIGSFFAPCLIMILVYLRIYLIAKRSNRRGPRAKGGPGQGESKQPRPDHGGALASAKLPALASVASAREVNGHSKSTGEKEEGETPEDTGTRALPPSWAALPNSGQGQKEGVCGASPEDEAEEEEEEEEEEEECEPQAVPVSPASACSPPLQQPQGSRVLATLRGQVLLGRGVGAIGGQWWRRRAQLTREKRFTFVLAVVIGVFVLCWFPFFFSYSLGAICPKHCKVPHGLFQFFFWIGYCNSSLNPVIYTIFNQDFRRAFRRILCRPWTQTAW
The experiment in a line: Binding affinity at human alpha2B AR.

Test [8] has as its target T4, Alpha-2C adrenergic receptor (Homo sapiens, UniProt P18825).
T4 sequence (P18825 whole entry): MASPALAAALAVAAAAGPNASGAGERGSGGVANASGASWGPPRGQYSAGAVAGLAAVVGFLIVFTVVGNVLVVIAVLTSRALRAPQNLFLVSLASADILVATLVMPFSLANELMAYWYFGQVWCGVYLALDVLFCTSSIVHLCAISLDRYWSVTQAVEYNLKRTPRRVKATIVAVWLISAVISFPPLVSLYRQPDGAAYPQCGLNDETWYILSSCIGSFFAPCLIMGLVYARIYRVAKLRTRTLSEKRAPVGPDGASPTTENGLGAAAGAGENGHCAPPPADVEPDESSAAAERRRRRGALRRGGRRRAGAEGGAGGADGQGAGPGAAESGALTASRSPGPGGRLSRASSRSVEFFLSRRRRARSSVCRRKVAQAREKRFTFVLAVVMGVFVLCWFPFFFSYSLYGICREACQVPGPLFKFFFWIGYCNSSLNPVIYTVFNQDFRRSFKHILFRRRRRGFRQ
The experiment in a line: Agonist activity at human alpha2C AR.

The target in test [9] is T4, Alpha-2C adrenergic receptor. The experiment in a line: Binding affinity at human alpha2C AR.
Test [10] deals with T5, Alpha-2A adrenergic receptor (Homo sapiens, UniProt P08913).
T5 sequence (P08913 whole entry): T2 sequence (whole entry)
The experiment in a line: Binding affinity at human alpha2A AR.

In test [11] the test system is Mus musculus. The experiment in a line: Antidepressant-like activity in mouse assessed as reduction in immobility time at 5 mg/kg, ip by forced swimming test in presence of WAY 100635. Set-up: dose 5 mg/kg. The format is functional, organism-based.
Test [12] concerns Mus musculus. The experiment in a line: Antidepressant-like activity in mouse assessed as reduction in immobility time at 1 to 20 mg/kg, ip by forced swimming test. The format is functional, organism-based.
Test [13] has as its target T3, Alpha-2B adrenergic receptor. The experiment in a line: Agonist activity at human alpha2B AR.
For test [14], the system named is Mus musculus. As to the kind of experiment: Antidepressant-like activity in mouse assessed as reduction in immobility time at 5 mg/kg, ip by forced swimming test. It is filed as functional. Set-up: scale not given: the % may be the effect or the level left. The conditions noted are these: route intraperitoneal.
Test [15] relates to Mus musculus. The experiment in a line: Antidepressant-like activity in mouse assessed as reduction in immobility time at 5 mg/kg, ip by forced swimming test in presence of idazoxan. The format is functional, organism-based. Also noted: dose 5 mg/kg.
For test [16], the target named is T6, 5-hydroxytryptamine receptor 1A (Homo sapiens, UniProt P08908).
T6 sequence (P08908 whole entry): T1 sequence (whole entry)
The experiment in a line: Binding affinity at human 5HT1A receptor.

Regarding `C=CCc1ccccc1OCC1=NCCN1`, the Intrinsic activity in [1] stood at 0.73. The Activity in the test with Mus musculus [2] is on record as over 50%; with Mus musculus [5] it was over 50%; in the test on Mus musculus [14] it was 50%. Moreover, the outcome in the test on Mus musculus [3] and in the test with Mus musculus [15] was inactive. Also, the pKb – broadly, the Kb on a negative log10 scale, so that one unit is a factor of ten – in test [4] is 6.5. The negative logarithm of the Ki (pKi) (usually the Ki on a negative log10 scale, so that one unit is a factor of ten) in test [6] turned out to be 8.88. In addition, the Ki (in general, a dissociation constant, usually derived from enzyme kinetics or from competition with a known ligand) is 0.708 µM in [7], 0.0708 µM in test [9], 0.126 µM in [10] and 0.0708 µM in [16]. Also, the concentration for a half-maximal effect (EC50) (usually the concentration needed to bring the measured effect to its halfway point) is 0.0617 µM in test [8] and 0.977 µM in test [13]. The result in the test with Mus musculus [11] and with Mus musculus [12] was Active.
